Counter-ions that a name gives are not always drawn.
Key:
[1] = tested on: ENR+CD organoids (ISC to Paneth cell differentiation); assay: Primary screen: basal (non-stimulated) lysozyme secretion LYZ.NS, 2.5-D 384-well ENR+CD organoid differentiation; format: cell-based, mouse
Text: (§1) High-throughput screening.

[2] = tested on: ENR+CD organoids (ISC to Paneth cell differentiation); assay: Primary screen: CCh-stimulated lysozyme secretion LYZ.S, 2.5-D 384-well ENR+CD organoid differentiation; format: cell-based, mouse; settings: primary screen
Text: as §1

[3] = tested on: ENR+CD organoids (ISC to Paneth cell differentiation); assay: Secondary (validation) screen: LYZ.NS basal lysozyme secretion, 2.5-D 384-well ENR+CD organoids; format: cell-based, mouse; settings: 6-day ENR+CD, vs ENR+CD+DMSO
Experimental: (§2) Drugs were tested at a narrowed dose range around each treatment's identified optimal dose from the primary screen (4× below, 2× above and below).
as §1
(§3) Secondary lysozyme secretion assay screen. Confirmatory secondary screening with primary hits was performed using the above 384-well plate method. The screen was conducted with 4-plate replicates with a base media of ENR+CD. Media was supplemented with compound at day 0 and day 3 (n=8 well replicates per dose) at four different doses: two-fold above, two-fold below, and four-fold below the optimal final dose for each respective treatment. Additionally, each plate carried a large number of ENR+DMSO or ENR+CD+DMSO (vehicle) control wells (n=100 for ATP, and n=25 for LYZ.NS and LYZ.S) for robust normalization. ATP, non-stimulated lysozyme activity and CCh-stimulated lysozyme activity was again measured and the collected data was again processed in a custom R-script, per primary screen with slight modification. Values were log10 transformed, and a plate-wise FC was calculated for each well based on the median value of ENR+CD+DMSO (vehicle) control wells to normalize plate to plate variability.

[4] = tested on: ENR+CD organoids (ISC to Paneth cell differentiation); assay: Secondary (validation) screen: LYZ.S CCh-stimulated lysozyme secretion, 2.5-D 384-well ENR+CD organoids; format: cell-based, mouse; settings: 6-day ENR+CD, vs ENR+CD+DMSO
Experimental: as §2, §1, §3

[5] = tested on: ENR+CD organoids; assay: Secondary (validation) screen: ATP (CTG) assay, 2.5-D 384-well ENR+CD organoids; format: cell-based, mouse; settings: 6-day ENR+CD, vs ENR+CD+DMSO
Experimental: as §2, §1, §3

[6] = tested on: ENR+CD organoids; assay: Primary screen: ATP (CellTiter-Glo 3D, CTG) cell number/viability, 2.5-D 384-well ENR+CD organoids; settings: primary screen; for Z.CTG: standard z score;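 as to all read-outs here: compounds given at plating and again on day 3 over a 6-day differentiation from ENR+CV stem-cell-enriched precursors, ATP measured on day 6, plate median as control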
[7] = dose 0.08 uM, FC relative to plate median
[8] = dose 0.40 uM, FC relative to plate median
[9] = dose 2.00 uM, FC relative to plate median
[10] = dose 10.00 uM, FC relative to plate median

`NC1(Cc2ccc(Cl)cc2)CCN(c2ncnc3[nH]ccc23)CC1` [CCT128930] showed a Dose.FC.LYZ.NS ([1]; primary screen, dose 0.08 uM) of 0.323 log2 fold change, a Dose.FC.LYZ.NS ([1]; primary screen, dose 0.40 uM) of −0.018 log2 fold change and a Dose.FC.LYZ.NS ([1]; primary screen, dose 2.00 uM) of 0.073 log2 fold change. It also gave a Dose.FC.LYZ.NS ([1]; primary screen, dose 10.00 uM) of −0.150 log2 fold change, a Z.LYZ.NS ([1]; primary screen, standard z score, dose 0.08 uM) of 2.811 and a Z.LYZ.NS ([1]; primary screen, standard z score, dose 0.40 uM) of −0.154. For the same compound, the Z.LYZ.NS ([1]; primary screen, standard z score, dose 2.00 uM) was 0.633, the Z.LYZ.NS ([1]; primary screen, standard z score, dose 10.00 uM) was −1.307 and the Dose.FC.LYZ.S ([2]; dose 0.08 uM) was 0.266 log2 fold change. The Dose.FC.LYZ.S ([2]; dose 0.40 uM) was −0.007 log2 fold change, the Dose.FC.LYZ.S ([2]; dose 2.00 uM) was 0.053 log2 fold change and the Dose.FC.LYZ.S ([2]; dose 10.00 uM) was −0.201 log2 fold change. The Dose.FC.LYZ.NS ([3]; 0.02 uM) was −0.241 log2 fold change, the Z.LYZ.NS ([3]; 0.02 uM) was −1.927 and the repSSMD.LYZ.NS ([3]; 0.02 uM) was −2.551. For the same compound, the Dose.FC.LYZ.NS ([3]; 0.04 uM) was −0.020 log2 fold change, the Z.LYZ.NS ([3]; 0.04 uM) was −0.164 and the repSSMD.LYZ.NS ([3]; 0.04 uM) was −0.204. For the same compound, the Dose.FC.LYZ.NS ([3]; 0.08 uM) was 0.031 log2 fold change, the Z.LYZ.NS ([3]; 0.08 uM) was 0.248 and the repSSMD.LYZ.NS ([3]; 0.08 uM) was 0.366. It also gave a Dose.FC.LYZ.NS ([3]; […]) of −0.160 log2 fold change, a Dose.FC.LYZ.S ([4]; 0.02 uM) of −0.319 log2 fold change and a Z.LYZ.S ([4]; 0.02 uM) of −2.445. For the same compound, the repSSMD.LYZ.S ([4]; 0.02 uM) was −3.825, the Dose.FC.LYZ.S ([4]; 0.04 uM) was −0.014 log2 fold change and the Z.LYZ.S ([4]; 0.04 uM) was −0.108. For the same compound, the repSSMD.LYZ.S ([4]; 0.04 uM) was −0.157, the Dose.FC.LYZ.S ([4]; 0.08 uM) was 0.005 log2 fold change and the Z.LYZ.S ([4]; 0.08 uM) was 0.041. The repSSMD.LYZ.S ([4]; 0.08 uM) was 0.069, the Dose.FC.LYZ.S ([4]; […]) was −0.217 log2 fold change and the Dose.FC.CTG ([5]; 0.02 uM) was −0.117 log2 fold change. It also gave a Z.CTG ([5]; 0.02 uM) of −1.054, a repSSMD.CTG ([5]; 0.02 uM) of −0.787 and a Dose.FC.CTG ([5]; 0.04 uM) of 0.122 log2 fold change. For the same compound, the Z.CTG ([5]; 0.04 uM) was 1.101, the repSSMD.CTG ([5]; 0.04 uM) was 0.922 and the Dose.FC.CTG ([5]; 0.08 uM) was 0.166 log2 fold change. The Z.CTG ([5]; 0.08 uM) was 1.494, the repSSMD.CTG ([5]; 0.08 uM) was 1.047 and the Dose.FC.CTG ([5]; […]) was −0.088 log2 fold change. The Dose.FC.CTG ([6]; dose 0.08 uM) was 0.095 log2 fold change, the Dose.FC.CTG ([6]; dose 0.40 uM) was −0.025 log2 fold change and the Dose.FC.CTG ([6]; dose 2.00 uM) was 0.127 log2 fold change. It also gave a Dose.FC.CTG ([6]; dose 10.00 uM) of −0.175 log2 fold change, a Z.CTG ([6]; dose 0.08 uM) of 0.228 and a Z.CTG ([6]; dose 0.40 uM) of −0.060. It also gave a Z.CTG ([6]; dose 2.00 uM) of 0.304 and a Z.CTG ([6]; dose 10.00 uM) of −0.418.
For `C[C@H](NCc1ccc(OCc2cccc(F)c2)cc1)C(N)=O` [Safinamide Mesylate, reference compound], the “primary screen hit call (SSMD and z-scored FC cutoffs in both LYZ assays)” value ([1]; LYZ.NS and LYZ.S; 0.08-10 uM, 6 days ENR+CD) was “sole hit in their respective pathway”, the Dose.FC.LYZ.NS ([1]; primary screen, dose 0.08 uM, FC relative to plate median) was 0.160 log2 fold change and the Z.LYZ.NS ([1]; primary screen, dose 0.08 uM, standard z score) was 1.394. It also gave a Dose.FC.LYZ.NS ([1]; primary screen, dose 0.40 uM, FC relative to plate median) of 0.093 log2 fold change, a Z.LYZ.NS ([1]; primary screen, dose 0.40 uM, standard z score) of 0.814 and a Dose.FC.LYZ.NS ([1]; primary screen, dose 2.00 uM, FC relative to plate median) of 0.174 log2 fold change. The Z.LYZ.NS ([1]; primary screen, dose 2.00 uM, standard z score) was 1.518, the Dose.FC.LYZ.NS ([1]; primary screen, dose 10.00 uM, FC relative to plate median) was 0.057 log2 fold change and the Z.LYZ.NS ([1]; primary screen, dose 10.00 uM, standard z score) was 0.499. It also gave a Dose.FC.LYZ.S [2, 7] of 0.302 log2 fold change, a Dose.FC.LYZ.S [2, 8] of 0.191 log2 fold change and a Dose.FC.LYZ.S [2, 9] of 0.236 log2 fold change. The Dose.FC.LYZ.S [2, 10] was 0.143 log2 fold change, the Dose.FC.LYZ.NS ([3]; 0.50 uM) was −0.156 log2 fold change and the Dose.FC.LYZ.NS ([3]; 1.00 uM) was −0.231 log2 fold change. For the same compound, the Dose.FC.LYZ.NS ([3]; 2.00 uM) was −0.046 log2 fold change, the Dose.FC.LYZ.NS ([3]; 4.00 uM) was −0.034 log2 fold change and the Dose.FC.LYZ.S ([4]; 0.50 uM) was −0.213 log2 fold change. The Dose.FC.LYZ.S ([4]; 1.00 uM) was −0.294 log2 fold change, the Dose.FC.LYZ.S ([4]; 2.00 uM) was −0.099 log2 fold change and the Dose.FC.LYZ.S ([4]; 4.00 uM) was −0.086 log2 fold change. For the same compound, the Dose.FC.CTG ([5]; 0.50 uM) was −0.014 log2 fold change, the Dose.FC.CTG ([5]; 1.00 uM) was −0.082 log2 fold change and the Dose.FC.CTG ([5]; 2.00 uM) was −0.011 log2 fold change. For the same compound, the Dose.FC.CTG ([5]; 4.00 uM) was −0.002 log2 fold change, the Dose.FC.CTG [6, 7] was 0.265 log2 fold change and the Dose.FC.CTG [6, 8] was 0.241 log2 fold change. It also gave a Dose.FC.CTG [6, 9] of 0.263 log2 fold change and a Dose.FC.CTG [6, 10] of 0.369 log2 fold change.

From patent US20220323406A1, “METHODS AND COMPOSITIONS FOR DIFFERENTIATING STEM CELLS” (Massachusetts Institute of Technology, priority 2019, published 2022)
